Experimental data published in article PMC7180456, “Multitarget Anticancer Agents Based on Histone Deacetylase and Protein Kinase CK2 Inhibitors” (Molecules, 2020).
Like-named read-outs stand apart in the source and are kept apart here. Values belong to the compound of their own block, whether it stands above or below them.

Key:
[1] = tested on: leukemia cells of HL-60 line; assay: Cytotoxicity, trypan blue exclusion assay, 24 h; type: cell-based; conditions: Homo sapiens
From the text: (§1) Taking into consideration the high abundance of CK2 kinase in leukemia and lymphomas, the ability of selected CK2-HDAC dual inhibitors to circumvent MDR was investigated in human leukemia cells of HL-60 line and its doxorubicin-resistant (HL-60/adr, MRP-1 overexpression) and vincristine-resistant (HL-60/vinc, P-gp overexpression) sublines.
(§2) Statistical significance was set at P ≤ 0.05.

[2] = tested on: HL-60/adr (doxorubicin-resistant, MRP-1 overexpression); assay: Cytotoxicity, trypan blue exclusion assay, 24 h; type: cell-based; conditions: Homo sapiens, HL60/ADR
From the text: as §1, §2

[3] = tested on: HL-60/vinc (vincristine-resistant, P-gp overexpression); assay: Cytotoxicity, trypan blue exclusion assay, 24 h; type: cell-based; conditions: Homo sapiens, HL60/vinc
From the text: as §1, §2

[4] = tested on: HCT-116 colon carcinoma cells; assay: Cytotoxicity, trypan blue exclusion assay, 24 h; conditions: Homo sapiens
Protocol: (§4) Walter Berger, Institute of Cancer Research, Vienna Medical University. Human embryonal kidney cells of HEK293 line were obtained from cell culture collection of R.E. Kavetsky Institute of Experimental Pathology, Oncology and Radiobiology, National Academy of Sciences of Ukraine (Kyiv, Ukraine).
(§5) Cells were seeded (5 × 10^5/mL for leukemia cells and 1 × 10^5/mL for carcinoma cells) into 24-well tissue culture plates (Greiner Bio-one, Frickenhausen, Germany) and were permitted to adhere and grow for 24 h before the experiment. Short-term (24 h) cytotoxic effect of antitumor drugs was studied under the Evolution 300 Trino microscope (Delta Optical, Nowe Osiny, Poland) after cell staining with trypan blue dye (0.1%).
(§6) Final concentration of DMSO in cell culture was 0.5% or less.
(§7) All experiments were performed in triplicate and repeated three times. Statistical analysis of data was conducted in GraphPad Prism 7.0 Software (GraphPad Software, Inc.) using Student’s t test. Statistical significance was set at P ≤ 0.05. Evaluation of LC50 values of each compound was done by built-in functions of GraphPad Prism (non-linear regression, curve fit, [Inhibitor] vs. normalized response - Variable slope).

HDAC6 = target: T1, HDAC6 (Homo sapiens, UniProt Q9UBN7); assay: HDAC6 inhibition, fluorometric method (Enzo Fluorometric Drug Discovery Assay Kit); type: biochemical; conditions: read-out: Inhibitory activity IC50 on HDAC6
T1 construct: purchased Enzo Life Sciences, Inc
T1 sequence (Q9UBN7 1-1215): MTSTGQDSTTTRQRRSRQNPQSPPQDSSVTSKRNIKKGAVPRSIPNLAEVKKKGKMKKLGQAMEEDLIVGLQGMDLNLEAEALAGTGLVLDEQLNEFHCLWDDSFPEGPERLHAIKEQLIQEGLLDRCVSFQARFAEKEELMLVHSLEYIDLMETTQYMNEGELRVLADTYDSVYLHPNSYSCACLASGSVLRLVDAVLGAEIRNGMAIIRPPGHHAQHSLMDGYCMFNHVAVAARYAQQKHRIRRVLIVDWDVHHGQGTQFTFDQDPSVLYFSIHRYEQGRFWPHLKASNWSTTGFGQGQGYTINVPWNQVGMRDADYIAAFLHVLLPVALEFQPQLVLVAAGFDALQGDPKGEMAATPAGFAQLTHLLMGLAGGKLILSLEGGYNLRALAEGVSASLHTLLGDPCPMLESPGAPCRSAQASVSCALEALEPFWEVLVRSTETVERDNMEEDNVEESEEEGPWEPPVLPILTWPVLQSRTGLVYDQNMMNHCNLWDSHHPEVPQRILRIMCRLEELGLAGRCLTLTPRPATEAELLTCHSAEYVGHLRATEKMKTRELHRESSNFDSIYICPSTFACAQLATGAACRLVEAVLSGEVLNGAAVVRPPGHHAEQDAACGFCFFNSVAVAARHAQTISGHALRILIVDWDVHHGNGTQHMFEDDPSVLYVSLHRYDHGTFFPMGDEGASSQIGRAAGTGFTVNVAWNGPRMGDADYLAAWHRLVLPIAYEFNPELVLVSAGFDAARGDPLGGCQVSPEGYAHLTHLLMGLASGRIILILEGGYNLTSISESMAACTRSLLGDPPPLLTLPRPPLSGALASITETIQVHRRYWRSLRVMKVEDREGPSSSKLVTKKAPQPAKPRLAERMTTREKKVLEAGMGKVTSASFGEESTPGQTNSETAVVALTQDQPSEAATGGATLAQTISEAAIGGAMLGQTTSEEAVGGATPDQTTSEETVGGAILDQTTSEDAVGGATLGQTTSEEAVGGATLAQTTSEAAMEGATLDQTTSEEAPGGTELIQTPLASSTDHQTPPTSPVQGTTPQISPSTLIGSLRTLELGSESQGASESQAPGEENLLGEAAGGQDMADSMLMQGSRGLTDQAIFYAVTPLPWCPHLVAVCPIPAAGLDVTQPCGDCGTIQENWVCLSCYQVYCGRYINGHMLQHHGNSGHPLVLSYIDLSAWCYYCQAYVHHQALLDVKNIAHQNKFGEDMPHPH
Protocol: For this reason, we analyzed the activity of 15 and 19, together with other compounds from the alkyl and triazole series in HDAC6, tested using a fluorometric method (Table 1).
(§3) 15 µL of HDAC1 (0.4 µg/well) or HDAC6 (0.5 µg/well) were incubated at 37 °C for 30 minutes with 10 µL of inhibitor diluted in 5% DMSO and 25 µL of fluorogenic substrate (0.05 µL/well of 5 mM solution). Reactions were stopped with the developer and trichostatin A, diluted in buffer without BSA, and the plate was incubated at 30 °C for 45 min, followed by measuring the fluorescence (Ex. 360 nm, Em. 450 nm, Fluoroskan, Thermo Scientific).

[5] = Cytotoxicity, trypan blue exclusion assay, 24 h (pseudonormal cells); conditions: human, HEK293 embryonic kidney cells (pseudonormal)
Protocol: as §4, §5, §6, §7

[6] = tested on: breast adenocarcinoma cells of MCF-7 line; assay: Cytotoxicity, trypan blue exclusion assay, 24 h; conditions: Homo sapiens
Protocol: as §4, §5, §6, §7

Jurkat T-leukemia cells = assay: Cytotoxicity, trypan blue exclusion assay, 24 h; conditions: Homo sapiens
Protocol: as §4, §5, §6, §7

[7] = tested on: human tumor and pseudonormal cell lines; assay: Cytotoxicity, trypan blue assay, range over the cell lines tested; type: cell-based; conditions: 24 h, read-out: LC50 range depending on cell line
From the text: as §2

HL-60/wt cells = assay: Depolarization of mitochondria, JC-1 assay, FACS; type: cell-based, human; conditions: 24 h
human recombinant HDAC1 = target: T2, human recombinant HDAC1 (Homo sapiens, UniProt Q13547); assay: HDAC1 inhibition, fluorometric method (Enzo Fluorometric Drug Discovery Assay Kit); type: biochemical; conditions: read-out: Inhibitory activity IC50 on HDAC1
T2 construct: purchased Enzo Life Sciences, Inc
T2 sequence (Q13547 whole entry): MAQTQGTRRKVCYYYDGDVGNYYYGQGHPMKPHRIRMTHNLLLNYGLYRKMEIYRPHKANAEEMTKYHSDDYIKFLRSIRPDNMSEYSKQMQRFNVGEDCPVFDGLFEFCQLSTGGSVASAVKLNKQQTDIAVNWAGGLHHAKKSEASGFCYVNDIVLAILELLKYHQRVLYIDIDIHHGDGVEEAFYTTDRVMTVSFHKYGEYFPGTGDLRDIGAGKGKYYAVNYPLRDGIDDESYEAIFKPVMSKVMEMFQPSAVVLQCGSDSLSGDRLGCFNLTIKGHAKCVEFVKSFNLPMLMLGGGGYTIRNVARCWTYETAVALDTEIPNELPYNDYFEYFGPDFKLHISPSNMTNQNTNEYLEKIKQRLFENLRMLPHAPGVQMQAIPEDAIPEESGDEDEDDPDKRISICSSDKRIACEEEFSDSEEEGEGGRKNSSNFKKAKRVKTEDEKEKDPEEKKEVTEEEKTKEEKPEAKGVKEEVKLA
Protocol: The inhibitory activities of the synthesized compounds were determined against CK2 and HDAC1 and the IC50 values are collected in Table 1. The activity towards human recombinant HDAC1 was tested using a fluorometric method. CK2 inhibitory activity was determined by a radiometric method, using a short peptide ([…]) as a substrate.
as §3

human recombinant CK2α = target: T3, human recombinant CK2α (Homo sapiens, UniProt P68400); assay: CK2 inhibition, radiometric method with peptide substrate […]; type: biochemical; conditions: for fold less active in CK2 (than in HDAC1): CK2 IC50 versus HDAC1 IC50; for IC50: radiometric method, 20 µM ATP, read-out: Inhibitory activity IC50 on CK2
T3 construct: GST; made in house; host or cells: bacteria
T3 sequence (P68400 whole entry): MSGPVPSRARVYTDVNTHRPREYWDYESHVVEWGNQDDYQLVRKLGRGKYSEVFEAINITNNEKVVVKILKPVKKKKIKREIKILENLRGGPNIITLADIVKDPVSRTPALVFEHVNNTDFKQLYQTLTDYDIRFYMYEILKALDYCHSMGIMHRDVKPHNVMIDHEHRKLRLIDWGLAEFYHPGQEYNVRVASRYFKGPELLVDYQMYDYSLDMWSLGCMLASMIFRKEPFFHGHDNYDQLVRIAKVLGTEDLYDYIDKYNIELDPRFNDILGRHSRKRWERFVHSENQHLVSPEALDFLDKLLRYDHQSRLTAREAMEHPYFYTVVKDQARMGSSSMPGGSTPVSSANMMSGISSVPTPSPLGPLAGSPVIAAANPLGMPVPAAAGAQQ
Protocol: The activity towards human recombinant HDAC1 was tested using a fluorometric method. CK2 inhibitory activity was determined by a radiometric method, using a short peptide ([…]) as a substrate.
Recombinant human protein kinase GST-CK2 was produced in bacteria and purified as described elsewhere. […] The reaction buffer contained 20 µM [γ-32P] ATP (specific radioactivity 300–1000 cpm/pmol), 15 mM Mg^2+, 20 mM Tris–HCl pH 7.5, and 6 mM 2-mercaptoethanol. 10 µL of the assay mixture was spotted onto a square (1 cm/1 cm) of Whatman P81 paper and allowed to dry. Each square was immersed in cold 0.5% phosphoric acid, and washed three times during 10 min, allowed to dry and transferred into a vessel containing Opti-Phase liquid (scintillation solution) and radioactivity was quantified using a scintillation counter (MicroBeta, Perkin Elmer) by Cerenkov counting. All experiments were performed in triplicate. IC50 values were calculated using GraphPad Prism (version 4.0) software.

CK2 = conditions: Figure 1; read-out: IC50 of representative CK2 inhibitors; cited from earlier work

fold less active in CK2 (than in HDAC1) (human recombinant CK2α): 60 fold
IC50 (human recombinant CK2α): 85.1 µM
IC50 (human recombinant HDAC1): 1.43 µM
Structure (SMILES): CN(C)c1nc2c(Br)c(Br)c(Br)c(Br)c2n1Cc1cn(CCCC(=O)NO)nn1 [Compound 7a, N-Hydroxy-4-(4-((4,5,6,7-tetrabromo-2-(dimethylamino)-1H-benzo[d]imidazol-1-yl)methyl)-1H-1,2,3-triazol-1-yl)butanamide]

IC50 (HDAC6): 2.7 µM
IC50 (human recombinant CK2α): 136 µM
IC50 (human recombinant HDAC1): 4.22 µM
Structure (SMILES): O=C(NO)c1ccc(Cn2nnc3c(Br)c(Br)c(Br)c(Br)c32)cc1 [Compound 15b, N-Hydroxy-4-((tetrabromo-1H-benzo[d][1,2,3]triazol-1-yl)methyl)benzamide]

IC50 (HDAC6): 2.41 µM
fold less active in CK2 (than in HDAC1) (human recombinant CK2α): 22 fold
IC50 (human recombinant CK2α): 50.1 µM
IC50 (human recombinant HDAC1): 2.25 µM
Structure (SMILES): CN(C)c1nc2c(Br)c(Br)c(Br)c(Br)c2n1Cc1cn(CCCCC(=O)NO)nn1 [Compound 7b, N-Hydroxy-5-(4-((4,5,6,7-tetrabromo-2-(dimethylamino)-1H-benzo[d]imidazol-1-yl)methyl)-1H-1,2,3-triazol-1-yl)pentanamide]

More lines, now with the values behind:

Structure (SMILES): CN(C)c1nc2c(Br)c(Br)c(Br)c(Br)c2n1CCCCCC(=O)NO [Compound 11b, N-Hydroxy-6-(4,5,6,7-tetrabromo-2-(dimethylamino)-1H-benzo[d]imidazol-1-yl)hexanamide]
CC50 ([1]; Table 2, trypan blue, 24 h, M ± SD, read-out: LC50 Values of Compounds for Cell Line, HL-60): 7.67 ± 1.17 µM
CC50 ([1]; supplement Table 4S, M±SD, read-out: LC50 values of compounds for cell line, HL-60): 6.59 µM
CC50 ([2]; Table 2, trypan blue, 24 h, M ± SD, read-out: LC50 Values of Compounds for Cell Line, HL-60/adr): 16.2 ± 1.68 µM
CC50 ([2]; supplement Table 4S, M±SD, read-out: LC50 values of compounds for cell line, HL-60/adr): 10.6 µM
CC50 ([3]; Table 2, trypan blue, 24 h, M ± SD, read-out: LC50 Values of Compounds for Cell Line, HL-60/vinc): 16.8 ± 3.34 µM
CC50 ([3]; supplement Table 4S, M±SD, read-out: LC50 values of compounds for cell line, HL-60/vinc): 12.7 µM
CC50 ([4]; HCT-116, 24 h, read-out: LC50 Values of Compounds for Cell Line, HCT-116): 4.22 ± 0.46 µM
CC50 ([4]; HCT-116, read-out: LC50 values of compounds for cell line, HCT-116): 1.9 µM
IC50 (HDAC6): 0.66 µM
CC50 at 24 h ([5]; LC50 Values of Compounds for Cell Line, HEK293, Table 2, trypan blue, 24 h, M ± SD): 23.3 ± 4.38 µM
CC50 at 24 h ([5]; LC50 values of compounds for cell line, HEK293, supplement Table 4S, M±SD): 13.6 µM
CC50 ([6]; MCF7, 24 h, read-out: LC50 Values of Compounds for Cell Line, MCF-7): 15.7 ± 2.54 µM
CC50 ([6]; MCF7, read-out: LC50 values of compounds for cell line, MCF-7): 9.97 µM
CC50 (Jurkat T-leukemia cells; 24 h, read-out: LC50 Values of Compounds for Cell Line, Jurkat): 10.2 ± 1.43 µM
CC50 (Jurkat T-leukemia cells; read-out: LC50 values of compounds for cell line, Jurkat): 10 µM
CC50 [7]: 4 to 23 µM
depolarization of mitochondria (HL-60/wt cells; 10 µM): 14.55%
depolarization of mitochondria (HL-60/wt cells; 30 µM): 34.06%
IC50 (human recombinant HDAC1): 1.46 µM

Structure (SMILES): O=c1oc2c(O)c(O)cc3c(=O)oc4c(O)c(O)cc1c4c23 [Ellagic acid]
IC50 (CK2): 0.04 µM
